Source: ChEMBL document CHEMBL5325488, “Discovery of SMD-3040 as a Potent and Selective SMARCA2 PROTAC Degrader with Strong in vivo Antitumor Activity” (J Med Chem, 2023)
Calls of active or inactive are those of the source. The calls are words filed in the database; no cut-off is given here.

How the values were obtained:
[1] = biological target: T1, von Hippel-Lindau disease tumor suppressor/SWI/SNF-related matrix-associated actin-dependent regulator of chromatin subfamily A member 2 (Homo sapiens, UniProt P51531+P40337); test: PROTAC activity at VHL/wild-type SMARCA2 in human SK-MEL-28 cells assessed as induction of SMARCA2 degradation incubated for 24 hrs by Western blotting analysis; format: cell-based
[2] = biological target: T2, von Hippel-Lindau disease tumor suppressor/SWI/SNF-related matrix-associated actin-dependent regulator of chromatin subfamily A member 4 (Homo sapiens, UniProt P51532+P40337); test: PROTAC activity at VHL/C-terminal HiBiT fused SMARCA4 in human HeLa cells assessed as induction of SMARCA4 degradation by measuring maximal efficacy incubated for 24 hrs by Nano-Glo HiBiT analysis relative to control; format: cell-based
Target sequence in this assay (P40337 whole entry, looked up, the tested form may be a part): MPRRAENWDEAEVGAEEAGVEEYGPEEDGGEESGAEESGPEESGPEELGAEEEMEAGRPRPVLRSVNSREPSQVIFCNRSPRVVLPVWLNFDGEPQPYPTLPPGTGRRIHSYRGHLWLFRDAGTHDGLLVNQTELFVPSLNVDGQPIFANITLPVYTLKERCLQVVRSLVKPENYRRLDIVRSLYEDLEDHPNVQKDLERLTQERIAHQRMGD
Target sequence in this assay (P51532 whole entry, looked up, the tested form may be a part): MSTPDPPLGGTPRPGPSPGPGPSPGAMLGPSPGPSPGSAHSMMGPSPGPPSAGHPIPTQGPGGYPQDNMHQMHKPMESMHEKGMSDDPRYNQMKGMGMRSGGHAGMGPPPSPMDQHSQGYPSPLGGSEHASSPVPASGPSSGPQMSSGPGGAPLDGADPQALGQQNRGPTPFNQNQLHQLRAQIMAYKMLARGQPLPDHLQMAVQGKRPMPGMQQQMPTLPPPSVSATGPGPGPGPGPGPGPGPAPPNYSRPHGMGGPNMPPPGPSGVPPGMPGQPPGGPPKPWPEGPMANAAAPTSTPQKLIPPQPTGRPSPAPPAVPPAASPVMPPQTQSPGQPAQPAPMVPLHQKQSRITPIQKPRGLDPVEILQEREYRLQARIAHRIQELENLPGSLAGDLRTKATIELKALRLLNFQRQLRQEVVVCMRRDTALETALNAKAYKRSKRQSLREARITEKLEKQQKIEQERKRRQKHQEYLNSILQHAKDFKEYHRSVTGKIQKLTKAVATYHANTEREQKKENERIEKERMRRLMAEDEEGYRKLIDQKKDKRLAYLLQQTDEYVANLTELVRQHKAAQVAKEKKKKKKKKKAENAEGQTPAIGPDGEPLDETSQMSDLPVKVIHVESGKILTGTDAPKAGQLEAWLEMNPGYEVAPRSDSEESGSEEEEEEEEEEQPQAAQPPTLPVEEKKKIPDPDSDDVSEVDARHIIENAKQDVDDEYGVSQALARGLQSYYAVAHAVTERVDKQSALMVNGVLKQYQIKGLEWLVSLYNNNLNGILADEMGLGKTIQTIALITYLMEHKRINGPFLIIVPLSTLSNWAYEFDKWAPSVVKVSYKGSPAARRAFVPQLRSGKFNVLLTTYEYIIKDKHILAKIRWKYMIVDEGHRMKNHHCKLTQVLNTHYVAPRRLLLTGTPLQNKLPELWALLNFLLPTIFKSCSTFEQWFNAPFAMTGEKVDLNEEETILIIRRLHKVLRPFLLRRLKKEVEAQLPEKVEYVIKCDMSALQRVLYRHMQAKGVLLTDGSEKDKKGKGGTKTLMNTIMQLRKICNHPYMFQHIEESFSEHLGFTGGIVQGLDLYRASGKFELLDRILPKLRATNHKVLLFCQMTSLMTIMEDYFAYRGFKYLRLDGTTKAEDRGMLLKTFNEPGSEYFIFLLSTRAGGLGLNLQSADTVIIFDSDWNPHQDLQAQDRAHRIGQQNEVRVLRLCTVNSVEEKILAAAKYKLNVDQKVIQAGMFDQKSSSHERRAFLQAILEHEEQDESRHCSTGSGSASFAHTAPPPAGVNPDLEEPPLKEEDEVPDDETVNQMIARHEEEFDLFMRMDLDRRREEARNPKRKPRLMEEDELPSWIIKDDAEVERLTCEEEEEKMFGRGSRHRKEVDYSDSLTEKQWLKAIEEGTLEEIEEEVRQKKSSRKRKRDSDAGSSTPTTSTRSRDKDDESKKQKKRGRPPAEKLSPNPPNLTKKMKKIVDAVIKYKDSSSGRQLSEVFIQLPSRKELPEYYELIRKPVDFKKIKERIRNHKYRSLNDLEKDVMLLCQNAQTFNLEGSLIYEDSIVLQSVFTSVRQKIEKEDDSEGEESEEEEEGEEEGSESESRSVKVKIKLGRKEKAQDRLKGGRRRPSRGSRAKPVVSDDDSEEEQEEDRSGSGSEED

[3] = biological target: T1, von Hippel-Lindau disease tumor suppressor/SWI/SNF-related matrix-associated actin-dependent regulator of chromatin subfamily A member 2; test: PROTAC activity at VHL/C-terminal HiBiT fused SMARCA2 in human HeLa cells assessed as induction of SMARCA2 degradation by measuring maximal efficacy at 0.0001 to 1 uM incubated for 48 hrs by Nano-Glo HiBiT analysis relative to control; format: cell-based; settings: dose 0.0001-1 µM
[4] = biological target: T2, von Hippel-Lindau disease tumor suppressor/SWI/SNF-related matrix-associated actin-dependent regulator of chromatin subfamily A member 4; test: PROTAC activity at VHL/C-terminal HiBiT fused SMARCA4 in human HeLa cells assessed as induction of SMARCA4 degradation incubated for 1 hr by Nano-Glo HiBiT analysis; format: cell-based
Target sequence in this assay (P51532 whole entry, the tested form may be a part): as the sequence (P51532 whole entry, looked up, the tested form may be a part) above
Target sequence in this assay (P40337 whole entry, the tested form may be a part): as the sequence (P40337 whole entry, looked up, the tested form may be a part) above

[5] = biological target: T2, von Hippel-Lindau disease tumor suppressor/SWI/SNF-related matrix-associated actin-dependent regulator of chromatin subfamily A member 4; test: PROTAC activity at VHL/C-terminal HiBiT fused SMARCA4 in human HeLa cells assessed as induction of SMARCA4 degradation by measuring maximal efficacy at 0.001 to 10 uM incubated for 3 hrs by Nano-Glo HiBiT analysis relative to control; format: cell-based; settings: dose 0.001-10 µM
Target sequence in this assay (P40337 whole entry, looked up, the tested form may be a part): as above
Target sequence in this assay (P51532 whole entry, looked up, the tested form may be a part): as the sequence (P51532 whole entry, looked up, the tested form may be a part) above

[6] = biological target: T2, von Hippel-Lindau disease tumor suppressor/SWI/SNF-related matrix-associated actin-dependent regulator of chromatin subfamily A member 4; test: PROTAC activity at VHL/C-terminal HiBiT fused SMARCA4 in human HeLa cells assessed as induction of SMARCA4 degradation incubated for 6 hrs by Nano-Glo HiBiT analysis; format: cell-based
Target sequence in this assay (P51532 whole entry, the tested form may be a part): as the sequence (P51532 whole entry, looked up, the tested form may be a part) above
Target sequence in this assay (P40337 whole entry, the tested form may be a part): as the sequence (P40337 whole entry, looked up, the tested form may be a part) above

[7] = biological target: T2, von Hippel-Lindau disease tumor suppressor/SWI/SNF-related matrix-associated actin-dependent regulator of chromatin subfamily A member 4; test: PROTAC activity at VHL/C-terminal HiBiT fused SMARCA4 in human HeLa cells assessed as induction of SMARCA4 degradation by measuring maximal efficacy at 0.001 to 10 uM incubated for 6 hrs by Nano-Glo HiBiT analysis relative to control; format: cell-based; settings: dose 0.001-10 µM
Target sequence in this assay (P40337 whole entry, looked up, the tested form may be a part): as above
Target sequence in this assay (P51532 whole entry, looked up, the tested form may be a part): as the sequence (P51532 whole entry, looked up, the tested form may be a part) above

[8] = biological target: T2, von Hippel-Lindau disease tumor suppressor/SWI/SNF-related matrix-associated actin-dependent regulator of chromatin subfamily A member 4; test: PROTAC activity at VHL/C-terminal HiBiT fused SMARCA4 in human HeLa cells assessed as induction of SMARCA4 degradation by measuring maximal efficacy at 0.001 to 10 uM incubated for 24 hrs by Nano-Glo HiBiT analysis relative to control; format: cell-based; settings: dose 0.001-10 µM
Target sequence in this assay (P40337 whole entry, looked up, the tested form may be a part): as the sequence (P40337 whole entry, looked up, the tested form may be a part) above
Target sequence in this assay (P51532 whole entry, looked up, the tested form may be a part): as the sequence (P51532 whole entry, looked up, the tested form may be a part) above

[9] = biological target: T2, von Hippel-Lindau disease tumor suppressor/SWI/SNF-related matrix-associated actin-dependent regulator of chromatin subfamily A member 4; test: PROTAC activity at VHL/C-terminal HiBiT fused SMARCA4 in human HeLa cells assessed as induction of SMARCA4 degradation at 0.001 to 10 uM by Nano-Glo HiBiT analysis; format: cell-based; settings: dose 0.001-10 µM, time 1-48 hrs, TDE = time-dependent effect
Target sequence in this assay (P40337 whole entry, looked up, the tested form may be a part): as the sequence (P40337 whole entry, looked up, the tested form may be a part) above
Target sequence in this assay (P51532 whole entry, looked up, the tested form may be a part): as the sequence (P51532 whole entry, looked up, the tested form may be a part) above

[10] = biological target: T1, von Hippel-Lindau disease tumor suppressor/SWI/SNF-related matrix-associated actin-dependent regulator of chromatin subfamily A member 2; test: PROTAC activity at VHL/C-terminal HiBiT fused SMARCA2 in human HeLa cells assessed as induction of SMARCA2 degradation pre-treated with PR171 for 2 hrs followed by compound treatment for 24 hrs by Nano-Glo HiBiT analysis; format: cell-based
[11] = biological target: T2, von Hippel-Lindau disease tumor suppressor/SWI/SNF-related matrix-associated actin-dependent regulator of chromatin subfamily A member 4; test: PROTAC activity at VHL/wild-type SMARCA4 in human SK-MEL-28 cells assessed as induction of SMARCA4 degradation at 0.001 to 1000 nM incubated for 24 hrs by Western blotting analysis relative to control; format: cell-based; settings: dose 0.001-1000 nM
Target sequence in this assay (P40337 whole entry, looked up, the tested form may be a part): as the sequence (P40337 whole entry, looked up, the tested form may be a part) above
Target sequence in this assay (P51532 whole entry, looked up, the tested form may be a part): as the sequence (P51532 whole entry, looked up, the tested form may be a part) above

NCI-H1793 = test: Antiproliferative activity against SMARCA4-deficient human NCI-H1793 cells assessed as cell growth inhibition measured after 7 days by WST-8 assay; format: functional; settings: NCI-H1793, 168 h, time 7 day
NCI-H1693 [12] = test: Antiproliferative activity against SMARCA4-deficient human NCI-H1693 cells assessed as cell growth inhibition measured after 7 days by WST-8 assay; format: functional; settings: NCI-H1693, 168 h, time 7 day
SK-MEL-28 = test: Antiproliferative activity against human SK-MEL-28 cells expressing wild-type SMARCA2 assessed as cell growth inhibition measured after 7 days by WST-8 assay; format: functional; settings: SK-MEL-28, 168 h, time 7 day
NCI-H1299 = test: Antiproliferative activity against SMARCA4-deficient human NCI-H1299 cells assessed as cell growth inhibition by measuring maximal efficacy measured after 7 days by WST-8 assay relative to control; format: functional; settings: time 7 day
NCI-H838 = test: Antiproliferative activity against SMARCA4-deficient human NCI-H838 cells assessed as cell growth inhibition by measuring maximal efficacy measured after 7 days by WST-8 assay relative to control; format: functional; settings: time 7 day
NCI-H1693 [13] = test: Antiproliferative activity against SMARCA4-deficient human NCI-H1693 cells assessed as cell growth inhibition by measuring maximal efficacy measured after 7 days by WST-8 assay relative to control; format: functional; settings: time 7 day
NCI-H1975 = test: Antiproliferative activity against human NCI-H1975 cells expressing wild-type SMARCA2 assessed as cell growth inhibition by measuring maximal efficacy measured after 7 days by WST-8 assay relative to control; format: functional; settings: time 7 day
[14] = biological target: T1, von Hippel-Lindau disease tumor suppressor/SWI/SNF-related matrix-associated actin-dependent regulator of chromatin subfamily A member 2; test: In vivo PROTAC activity at VHL/SMARCA2 in SCID mouse xenografted with human MV4-11 cells assessed as reduction of SMARCA2 level in tumor at 50 mg/kg, iv administered as single dose measured after 48 hrs by Western blotting analysis; format: ADME, organism-based; parameters: scale not given: the % may be the effect or the level left
[15] = biological target: T1, von Hippel-Lindau disease tumor suppressor/SWI/SNF-related matrix-associated actin-dependent regulator of chromatin subfamily A member 2; test: In vivo PROTAC activity at VHL/SMARCA2 in SCID mouse xenografted with human MV4-11 cells assessed as remaining activity in tumor at 50 mg/kg, iv administered as single dose measured after 2 hrs by Western blotting analysis (reference value: 100 +/- 15 % ); format: ADME, organism-based
[16] = biological target: T1, von Hippel-Lindau disease tumor suppressor/SWI/SNF-related matrix-associated actin-dependent regulator of chromatin subfamily A member 2; test: In vivo PROTAC activity at VHL/SMARCA2 in SCID mouse xenografted with human MV4-11 cells assessed as remaining activity in tumor at 50 mg/kg, iv administered as single dose measured after 48 hrs by Western blotting analysis (reference value: 100 +/- 15 % ); format: ADME, organism-based
[17] = biological target: T2, von Hippel-Lindau disease tumor suppressor/SWI/SNF-related matrix-associated actin-dependent regulator of chromatin subfamily A member 4; test: In vivo PROTAC activity at VHL/SMARCA4 in SCID mouse xenografted with human MV4-11 cells assessed as reduction of SMARCA4 level in tumor at 50 mg/kg, iv administered as single dose measured after 48 hrs by Western blotting analysis; format: ADME, organism-based; parameters: scale not given: the % may be the effect or the level left
Target sequence in this assay (P51532 whole entry, the tested form may be a part): as the sequence (P51532 whole entry, looked up, the tested form may be a part) above
Target sequence in this assay (P40337 whole entry, the tested form may be a part): as the sequence (P40337 whole entry, looked up, the tested form may be a part) above

[18] = biological target: T2, von Hippel-Lindau disease tumor suppressor/SWI/SNF-related matrix-associated actin-dependent regulator of chromatin subfamily A member 4; test: In vivo PROTAC activity at VHL/SMARCA4 in SCID mouse xenografted with human MV4-11 cells assessed as reduction of SMARCA4 level in tumor at 50 mg/kg, iv administered as single dose measured after 96 hrs by Western blotting analysis; format: ADME, organism-based; parameters: scale not given: the % may be the effect or the level left
Target sequence in this assay (P51532 whole entry, the tested form may be a part): as the sequence (P51532 whole entry, looked up, the tested form may be a part) above
Target sequence in this assay (P40337 whole entry, the tested form may be a part): as the sequence (P40337 whole entry, looked up, the tested form may be a part) above

[19] = biological target: T2, von Hippel-Lindau disease tumor suppressor/SWI/SNF-related matrix-associated actin-dependent regulator of chromatin subfamily A member 4; test: In vivo PROTAC activity at VHL/SMARCA4 in SCID mouse xenografted with human MV4-11 cells assessed as remaining activity in tumor at 50 mg/kg, iv administered as single dose measured after 2 hrs by Western blotting analysis (reference value: 100 +/- 15 % ); format: ADME, organism-based
Target sequence in this assay (P51532 whole entry, the tested form may be a part): as the sequence (P51532 whole entry, looked up, the tested form may be a part) above
Target sequence in this assay (P40337 whole entry, the tested form may be a part): as the sequence (P40337 whole entry, looked up, the tested form may be a part) above

[20] = Drug concentration in SCID mouse plasma xenografted with human MV4-11 cells at 50 mg/kg, iv measured after 24 hrs by LC-MS/MS method; format: ADME, organism-based

DC50 [1]: 35 nM
Emax [2]: 44%
Emax [3]: 94%
DC50 [4]: > 3300 nM
Emax [5]: 46%
DC50 [6]: > 3300 nM
Emax [7]: 49%
Emax [8]: 57%
Activity [9]: Tde
Activity [10]: inactive
Emax [11]: 24%
GI50 (NCI-H1793): 21 nM
GI50 (NCI-H1693 [12]): 15 nM
GI50 (SK-MEL-28): > 10000 nM
Activity [14]: 83%
Activity [15]: 22%
Activity [16]: 17%
Activity [17]: 13%
Activity [18]: 16%
Activity [19]: 93%
concentration at 24 h [20]: 218 ng/mL
SMILES: Cc1ncsc1-c1ccc([C@H](C)NC(=O)[C@@H]2C[C@@H](O)CN2C(=O)[C@@H](NC(=O)[C@H]2CC[C@H](CN3CC4(CCC(n5cc(-c6cc(-c7ccccc7O)nnc6N)cn5)CC4)C3)CC2)C(C)(C)C)cc1
Imax (NCI-H1299): 41%
Imax (NCI-H838): 83%
Imax (NCI-H1693 [13]): 79%
Imax (NCI-H1975): 47%
